Test results published in patent US5286735A, “Derivatives of 4-aminomethylpiperidine, their preparation and their use as therapeutics” (Pierre Fabre Medicament, priority 1991, dated 1994).

target: T1, serotoninergic 5-HT1A receptors (Rattus norvegicus, UniProt P19327); assay: 5-HT1A binding studies (3H-8-OH-DPAT ligand, rat hippocampus membranes); parameters: species or system rat (male Charles River); conditions: 3H-8-OH-DPAT 1 nM, 30 min at 25° C.
T1 construct: The hippocampus is crushed with Polytron; from tissue; host or cells: rat hippocampus membranes (male Charles River rats)
T1 sequence (P19327 1-422): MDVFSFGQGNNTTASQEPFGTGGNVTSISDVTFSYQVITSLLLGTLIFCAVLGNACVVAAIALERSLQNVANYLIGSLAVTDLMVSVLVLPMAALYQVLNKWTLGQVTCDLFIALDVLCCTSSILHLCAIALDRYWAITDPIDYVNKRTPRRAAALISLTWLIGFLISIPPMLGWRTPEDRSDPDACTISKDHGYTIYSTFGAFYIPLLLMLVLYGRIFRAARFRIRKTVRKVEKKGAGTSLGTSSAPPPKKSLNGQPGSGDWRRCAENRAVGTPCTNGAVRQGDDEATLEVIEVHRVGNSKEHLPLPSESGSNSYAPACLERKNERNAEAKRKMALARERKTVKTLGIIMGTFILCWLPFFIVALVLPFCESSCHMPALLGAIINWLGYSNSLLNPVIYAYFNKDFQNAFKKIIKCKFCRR
Protocol: The 5-HT1A binding studies were carried out in accordance with Peroutka's technique (see: Peroutka, S. J.: J. Neurochem. 47:529-540, 1986). Male Charles River rats are stunned and decapitated, the brain is removed and dissected. The different cerebral areas obtained are used or preserved at minus 20° C. The hippocampus is crushed with Polytron® (20 seconds at 7) in 20 volumes of 50 mM Tris-HCl buffer (pH 7.7 at 25° C.) and centrifuged at 45,000 g for 10 min. The residue is separated, taken up in the same volume of Tris buffer and incubated for 10 min at 37° C., and then again centrifuged for 10 min at 45, 000 g. The residue is then taken up in 100 volumes of Tris-HCl buffer containing 10 μm of Pargyline, 4 mM CaCl2 and 0.1% ascorbic acid. The mixture obtained is Dounce homogenized.
The binding is effected starting with 0.8 ml of the above membrane suspension to which 0.1 ml of ^3 H-8-OH-DPAT ligand is added (in a concentration of 1 nM) and either 0.1 ml of Tris buffer (control) or the compound of the present invention is added. After incubation for 30 min at 25° C., the mixture is filtered on GF/B (Whatman) and rinsed with 5 ml of iced Tris-HCl buffer. The residue and the filter are finally introduced into a vial containing 3 ml of Instage® scintillating liquid (Packard) and the radioactivity is measured with a Packard counter (Tri-Carbs®). The IC50 are determined graphically for a ligand concentration of 1 nM.

Row | Structure (SMILES) | IC50 [nM]
1 | Cc1cccc(C(=O)N2CCC(CNCC3CCc4ccccc4C3)CC2)c1 (stereo not drawn) [Compound 5, 1-(3-Methylbenzoyl) 4-[(1,2,3,4-tetrahydronaphthalen-2-yl)methylaminomethyl] piperidine] | 12.5
2 | Cc1cccc(C(=O)N2CCC(CNCC3CCc4ccccc4O3)CC2)c1 (stereo not drawn) [Compound 7, 1-(3-Methylbenzoyl) 4-[(3,4-dihydro 2[H].1-benzopyran-2-yl)methylaminomethyl] piperidine] | 3.8
3 | Cc1ccc(CN2CCC(CNCC3COc4ccccc4O3)CC2)cc1 (stereo not drawn) [Compound 17, 1-(4-Methylbenzyl) 4-(1,4-benzodioxan-2-ylmethylaminomethyl) piperidine] | 4.4
4 | Clc1cccc(CN2CCC(CNCC3COc4ccccc4O3)CC2)c1 (stereo not drawn) [Compound 22, 1-(3-Chlorobenzyl) 4-(1,4-benzodioxan-2-ylmethylaminomethyl) piperidine] | 2.1

The remaining lines, values ahead:

Row | IC50 [nM] | Structure (SMILES)
5 | 7.5 | Cc1cccc(C(=O)N2CCC(CNCC3Cc4ccccc4O3)CC2)c1 (stereo not drawn) [Compound 3, 1-(3-Methylbenzoyl) 4-[(2,3-dihydrobenzofuran-2-yl)methylaminomethyl] piperidine]
6 | 3 | O=C(c1ccccc1)N1CCC(CNCC2COc3ccccc3O2)CC1 (stereo not drawn) [Compound 9, 1-Benzoyl 4-(1,4-benzodioxan-2-ylmethylaminomethyl) piperidine]
